Where two headings read alike, the source gives them in different places.
How the values were obtained:
[1] = system: Sprague Dawley rats; assay: Forced swimming test (FST) after intranasal administration; format: in vivo, rat; conditions: for Climbing / Immobility / Swimming: mean ± SEM
Procedure: (§1) Male Sprague Dawley rats (body weight 200–225 g) were obtained from Charles River (Barcelona, Spain) and maintained in a humidity-controlled and temperature-controlled (20 °C–22 °C) room. Rats were maintained during the alcohol protocol on a 12-h reversed light/dark cycle (lights off at 9 a.m.). All animal experimentation was conducted in accordance with the University of Málaga Guidelines for the Care and Use of Laboratory Animals (Ethic Code: 22/05/2017/066).
(§2) Animals were preacclimated to the procedure and handled daily for 3 days to reduce stress. Rats were administered under light anaesthesia with isoflurane (3%–4% for induction and 1.5%–2% for maintenance) for approximately 2–3 min, sufficient to prevent movement during intranasal administration. A single intranasal infusion of GAL (1–15) (TOCRIS, Bristol, United Kingdom, molecular weight = 1557 g/mol) was administered at doses of 37.5 μg, 75 μg, 150 μg, or 300 μg, equivalent to those used with other peptides ([Serova et al., 2013]; [Serova et al., 2019]). Doses were dissolved in 20 μL of distilled water, with 10 μL administered into each nostril using a disposable plastic-tipped pipette, without inserting deeply, 30 min or 1 h before behavioral testing, as described previously ([Serova et al., 2013]; [Serova et al., 2019]). Care was taken to avoid contact with the intranasal mucosa. After intranasal administration, the animal’s head was held back for approximately 15 s to prevent loss of solution from the nostrils. Animals returned to normal behavior within 1–2 min, and no subjects needed to be withdrawn due to intolerance.
Depressive behavior was assessed using the FST, as described previously ([Millón et al., 2014]; [Cantero-García et al., 2022b]). Briefly, two swimming sessions were conducted: a 15-min pretest followed 24 h later by a 5-min test. Animals were individually placed in a vertical glass cylinder of 20 cm diameter containing water (25 °C) to a height of 30 cm. Immobility, swimming and climbing behaviors were evaluated and recorded during the second 5-min test. Behavioral scoring was conducted by a blinded experimenter using coded videos to ensure objectivity.
Two experiments were conducted in the FST (Figure 1A). A dose-response curve of GAL (1–15) was performed in the first set of experiments. For this, groups of rats received GAL (1–15) intranasally 37.5 μg (n = 6), 75 μg (n = 6), 150 μg (n = 6) or 300 μg (n = 6) or distilled water (n = 12) 30 min before the test. The effects in the FST of GAL (1–15) intranasally at 1 h were studied in the second set of experiments. For this, groups of rats received GAL (1–15) intranasal 37.5 μg (n = 8), 75 μg (n = 8) or distilled water (n = 4–5) 1 h before the test. Animals were randomly assigned to treatment groups.

[2] = system: Sprague Dawley rats; assay: Operant alcohol self-administration test after intranasal administration; format: in vivo, rat; conditions: 75 μg intranasal, 1 h before test
Procedure: as §1, §2
Training and testing were conducted in standard operant chambers (Panlab, Barcelona, Spain). Each chamber (250 mm W × 250 mm D × 250 mm H) was equipped with a drinking reservoir positioned 4 cm above the grid floor in the center of the front panel of the chamber, and two retractable levers were located 3 cm to right an left of the dinking receptacle. Each reservoir was calibrated to dispense 0.1 mL when the fixed ratio of lever presses was obtained. Chambers were connected to a computer running Packwin Sofware (2.0, Panlab, Barcelona, Spain).
Alcohol consumption was assessed using the previous self-administration test ([Cantero-García et al., 2022a]; [Cantero-García et al., 2022b]; [Lebourgeois et al., 2018]) (Figure 1B). Briefly, rats were exposed to intermittent consumption of 0.2% saccharin and 10% alcohol for 3 weeks. After that, rats were placed on a water restriction schedule for 2–4 days to facilitate training in lever pressing. […]

[3] = biological target: hERG potassium channel (Homo sapiens, UniProt Q12809); assay: hERG inhibition, FluxOR potassium assay in hERG-expressing HEK293 cells
Procedure: Cardiotoxicity of GAL (1–15) was assessed in hERG-expressing HEK cells using the FluxOR™ potassium assay (Invitrogen) on a FLIPR TETRA system. Cells were preloaded with FluxOR™ dye, followed by incubation with GAL (1–15) in a 10-point half-log dose-response curve (max concentration: 50 µM). After a 30-min equilibration, the thallium stimulation buffer was injected to measure potassium flux kinetics. […] Data were analyzed using Genedata Screener software, with IC50 values determined via the Hill model ([Annang et al., 2021]; [Lee et al., 2019]).

[4] = system: CHO cells; conditions: 24 h
Procedure: The study followed OECD Test Guideline 487 for micronucleus assessment in rodent CHO cells (ECACC ref: 85050302). Cells were seeded at 2,000/well in 96-well plates and incubated at 37 °C with 5% CO2. GAL (1–15) (2.52 mM stock) was tested at concentrations ranging from 3.12 to 50 μM for 24 h in six replicates. […] After treatment, cytochalasin B was added for 28 h to block cytokinesis, followed by fixation and Hoechst staining. Imaging was performed using the Operetta CLS High-Content Analysis System, and analysis was conducted with Harmony software and the in-house NucleusFinder App (ImageJ-based). NucleusFinder identified valid micronuclei under stringent criteria, excluding irregular structures ([Durcik et al., 2023]). The cytokinesis-block proliferation index (CBPI) was calculated to assess cytostatic effects, ensuring cytostasis remained below 60% to avoid secondary micronuclei induction due to cytotoxicity. Cytostasis was calculated as follows: %cytostasis = 100–100 [(CBPIT-1)/(CBPIC-1)] where T is the test compound treatment culture, C is the vehicle control culture, and CBPI = {(No. mononucleate cells) + (2 × No. binucleate cells) + (3 × No. multinucleate cells)}/(total number of cells).

[5] = biological target: T1, CYP3A4 (Homo sapiens, UniProt P08684); assay: Cytochrome P450 inhibition assay in human liver microsomes (testosterone substrate); format: in vitro ADME
T1 construct: Following the addition of human liver microsomes (HLM) and specific substrates; from tissue; host or cells: human liver microsomes
Procedure: (§3) The Cytochrome P450 (CYP450) inhibition assay was performed to assess GAL (1–15) using substrates specific for the CYP3A4, CYP2D6, and CYP2C9 isoforms. […] Following the addition of human liver microsomes (HLM) and specific substrates (testosterone for CYP3A4, dextromethorphan for CYP2D6, diclofenac for CYP2C9), reactions were incubated with shaking at 180 Hz (CYP3A4: 15 min; CYP2D6: 30 min; CYP2C9: 45 min). […] Reactions were quenched with acetonitrile, centrifuged, and analyzed using LC-MS/MS with a triple quadrupole mass spectrometer (AB SCIEX API4000) coupled to an Agilent 1290 HPLC system ([Fowler et al., 2022]). Data were processed using Genedata Screener software to calculate IC50 values.

[6] = biological target: CYP2D6 (Homo sapiens, UniProt P10635); assay: Cytochrome P450 inhibition assay in human liver microsomes (dextromethorphan substrate)
Procedure: as §3

[7] = biological target: CYP2C9 (Homo sapiens, UniProt P11712); assay: Cytochrome P450 inhibition assay in human liver microsomes (diclofenac substrate)
Procedure: as §3

[8] = system: rats; design: method as in Millón, 2014; conditions: 3 nmol intracerebroventricular; ref Millón, 2014; cited from earlier work
[9] = system: rats; design: method as in Cantero-García et al., 2022a; conditions: 3 nmol intracerebroventricular; ref Cantero-García et al., 2022a; cited from earlier work
[10] = system: rats; design: method as in Millón et al., 2019b; conditions: voluntary intake model; ref Millón et al., 2019b; cited from earlier work
[11] = 37.5 μg intranasal, 1 h before test
[12] = 75 μg intranasal, 1 h before test, p < 0.05 vs control
[13] = 150 μg intranasal, 30 min before test, p < 0.05
[14] = 300 μg intranasal, 30 min before test, p < 0.05

Sequence of CYP2D6 (P10635 whole entry): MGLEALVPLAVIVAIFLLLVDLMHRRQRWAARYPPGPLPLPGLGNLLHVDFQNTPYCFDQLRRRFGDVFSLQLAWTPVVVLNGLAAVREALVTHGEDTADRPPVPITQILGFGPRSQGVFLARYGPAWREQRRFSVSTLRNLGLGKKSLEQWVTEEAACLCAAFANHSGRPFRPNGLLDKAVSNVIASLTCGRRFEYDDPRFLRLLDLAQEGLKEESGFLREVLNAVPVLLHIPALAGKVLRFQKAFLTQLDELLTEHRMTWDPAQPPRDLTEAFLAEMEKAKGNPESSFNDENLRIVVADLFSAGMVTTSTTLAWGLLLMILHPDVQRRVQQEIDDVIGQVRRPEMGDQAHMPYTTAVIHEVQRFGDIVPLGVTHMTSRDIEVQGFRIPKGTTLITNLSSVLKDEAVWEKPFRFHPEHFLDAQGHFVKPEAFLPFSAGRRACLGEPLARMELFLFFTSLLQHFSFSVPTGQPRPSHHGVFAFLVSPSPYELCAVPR
Sequence of CYP2C9 (P11712 whole entry): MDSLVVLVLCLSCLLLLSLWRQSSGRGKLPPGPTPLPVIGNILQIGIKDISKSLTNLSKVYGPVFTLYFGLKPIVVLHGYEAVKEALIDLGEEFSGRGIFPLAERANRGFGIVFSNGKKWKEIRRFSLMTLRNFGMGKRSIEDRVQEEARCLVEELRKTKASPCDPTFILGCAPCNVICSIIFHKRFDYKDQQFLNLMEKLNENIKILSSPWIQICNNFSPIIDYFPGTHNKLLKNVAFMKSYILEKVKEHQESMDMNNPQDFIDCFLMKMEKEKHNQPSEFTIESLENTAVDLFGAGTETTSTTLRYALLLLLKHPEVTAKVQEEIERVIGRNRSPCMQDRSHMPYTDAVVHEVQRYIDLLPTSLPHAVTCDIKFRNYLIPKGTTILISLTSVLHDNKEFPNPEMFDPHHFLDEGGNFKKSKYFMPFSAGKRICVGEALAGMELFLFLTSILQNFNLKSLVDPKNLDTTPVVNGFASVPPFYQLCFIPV
T1 sequence (P08684 whole entry): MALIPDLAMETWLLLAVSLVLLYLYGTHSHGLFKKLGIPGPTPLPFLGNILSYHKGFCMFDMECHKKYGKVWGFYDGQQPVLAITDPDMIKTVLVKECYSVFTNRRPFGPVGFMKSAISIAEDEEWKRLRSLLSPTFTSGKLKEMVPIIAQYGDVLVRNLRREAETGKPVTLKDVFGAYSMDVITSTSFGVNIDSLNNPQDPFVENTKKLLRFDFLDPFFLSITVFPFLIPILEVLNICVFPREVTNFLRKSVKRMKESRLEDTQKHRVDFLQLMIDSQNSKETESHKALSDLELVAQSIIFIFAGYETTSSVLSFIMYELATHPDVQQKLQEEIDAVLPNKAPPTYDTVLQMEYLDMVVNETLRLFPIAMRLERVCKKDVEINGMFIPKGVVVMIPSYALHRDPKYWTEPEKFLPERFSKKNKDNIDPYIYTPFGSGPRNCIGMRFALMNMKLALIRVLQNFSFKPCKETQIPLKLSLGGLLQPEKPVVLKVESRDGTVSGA
Sequence of hERG potassium channel (Q12809 whole entry): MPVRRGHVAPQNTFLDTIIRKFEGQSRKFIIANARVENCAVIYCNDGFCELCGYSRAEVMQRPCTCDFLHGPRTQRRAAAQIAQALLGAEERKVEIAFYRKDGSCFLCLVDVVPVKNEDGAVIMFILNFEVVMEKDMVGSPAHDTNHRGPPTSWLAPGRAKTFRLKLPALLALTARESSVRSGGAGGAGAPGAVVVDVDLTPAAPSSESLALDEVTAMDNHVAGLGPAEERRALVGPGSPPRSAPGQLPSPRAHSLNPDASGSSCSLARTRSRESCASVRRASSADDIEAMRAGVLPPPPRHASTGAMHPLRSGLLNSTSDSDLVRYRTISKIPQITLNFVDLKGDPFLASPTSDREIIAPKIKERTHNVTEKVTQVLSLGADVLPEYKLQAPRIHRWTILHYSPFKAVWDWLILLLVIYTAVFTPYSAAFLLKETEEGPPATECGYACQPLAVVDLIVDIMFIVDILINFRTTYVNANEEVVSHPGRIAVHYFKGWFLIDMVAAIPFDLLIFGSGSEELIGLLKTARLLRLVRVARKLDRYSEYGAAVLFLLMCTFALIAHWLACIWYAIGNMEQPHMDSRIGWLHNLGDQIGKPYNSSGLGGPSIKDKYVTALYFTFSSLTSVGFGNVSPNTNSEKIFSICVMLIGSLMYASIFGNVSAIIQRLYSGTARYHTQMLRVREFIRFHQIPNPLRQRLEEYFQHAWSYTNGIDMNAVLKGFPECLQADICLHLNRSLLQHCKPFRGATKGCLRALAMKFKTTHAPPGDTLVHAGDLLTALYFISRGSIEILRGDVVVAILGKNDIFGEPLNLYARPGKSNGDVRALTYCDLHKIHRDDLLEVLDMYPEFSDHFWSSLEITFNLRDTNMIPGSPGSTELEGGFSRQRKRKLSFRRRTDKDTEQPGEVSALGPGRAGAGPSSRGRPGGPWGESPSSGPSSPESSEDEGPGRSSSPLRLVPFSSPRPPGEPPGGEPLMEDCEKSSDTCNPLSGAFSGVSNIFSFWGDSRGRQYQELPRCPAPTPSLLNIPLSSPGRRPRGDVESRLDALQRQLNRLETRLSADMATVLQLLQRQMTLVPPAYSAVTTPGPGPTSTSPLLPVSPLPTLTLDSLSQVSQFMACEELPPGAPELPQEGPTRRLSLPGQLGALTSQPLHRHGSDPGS

CC(C)C[C@H](NC(=O)[C@H](CC(C)C)NC(=O)[C@H](Cc1ccc(O)cc1)NC(=O)CNC(=O)[C@H](C)NC(=O)[C@H](CO)NC(=O)[C@H](CC(N)=O)NC(=O)[C@H](CC(C)C)NC(=O)[C@@H](NC(=O)[C@H](Cc1c[nH]c2ccccc12)NC(=O)CN)[C@@H](C)O)C(=O)NCC(=O)N1CCC[C@H]1C(=O)N[C@@H](Cc1cnc[nH]1)C(=O)N[C@@H](C)C(=O)O [GAL (1–15), Galanin (1–15)]
Behavioral effects in the FST ([1]; 37.5 μg intranasal, 30 min before test): did not produce significant behavioral effects
Immobility, swimming, or climbing behaviors in FST vs control [1, 11]: no significant alterations
Climbing [1, 11]: 109.6 ± 16.26 s
Immobility [1, 11]: 59.10 ± 23.04 s
Swimming [1, 11]: 97.75 ± 16.01 s
Immobility time in FST vs control ([1]; 75 μg intranasal, 30 min before test, p < 0.001): significant increase in immobility time
Swimming time in FST vs control ([1]; 75 μg intranasal, 30 min before test, p < 0.01): significantly decreased swimming time
Swimming ([1]; 75 μg intranasal, 1 h before test): 104.9 ± 15.86 s
Climbing [1, 12]: 62.96 ± 6.47 s
Immobility [1, 12]: 98.57 ± 18.74 s
Immobility time in FST vs control ([1]; 75 μg intranasal, 1 h before test, p < 0.05): increasing immobility time
Climbing time in FST vs control ([1]; 75 μg intranasal, 1 h before test, p ≤ 0.05): reducing climbing time
Immobility in FST vs control [1, 13]: significant increase in immobility
Swimming time in FST vs control [1, 13]: reduction in swimming time
Immobility in FST vs control [1, 14]: significant increase in immobility
Swimming time in FST vs control [1, 14]: reduction in swimming time
Climbing time in FST ([1]; any of the tested doses (37.5-300 μg) intranasal, 30 min before test): No effects were observed
Total number of inactive lever presses vs control [2]: did not significantly differ
Active lever presses vs control ([2]; 30-min session, p < 0.01): significantly reduced
Number of alcohol reinforcements vs control ([2]; 30-min session, p < 0.01): marked decrease
Inactive lever presses ([2]; mean ± SEM): 0.2 ± 0.1
IC50 ([3]; Cardiotoxicity classification from hERG IC50, FluxOR potassium assay, HEK293-hERG): > 10 µM
IC50 ([3]; hERG IC50, HEK293 cells stably expressing hERG, FluxOR potassium assay, n = 3): 20.9 µM
% Cytostasis ([4]; 3.125 µM): 0%
% MN ([4]; 3.125 µM): 8.39%
No. binucleate cells ([4]; 3.125 µM): 3,324
No. of binucleated cells with MN ([4]; 3.125 µM): 278
% Cytostasis ([4]; 6.25 µM): 0%
% MN ([4]; 6.25 µM): 8.28%
No. binucleate cells ([4]; 6.25 µM): 3,210
No. of binucleated cells with MN ([4]; 6.25 µM): 265
% Cytostasis ([4]; 12.5 µM): 0%
% MN ([4]; 12.5 µM): 8.53%
No. binucleate cells ([4]; 12.5 µM): 3,209
No. of binucleated cells with MN ([4]; 12.5 µM): 273
% Cytostasis ([4]; 25 µM): 0%
% MN ([4]; 25 µM): 8.70%
No. binucleate cells ([4]; 25 µM): 3,135
No. of binucleated cells with MN ([4]; 25 µM): 272
% Cytostasis ([4]; 50 µM): 0.1%
% MN ([4]; 50 µM): 7.94%
No. binucleate cells ([4]; 50 µM): 3,108
No. of binucleated cells with MN ([4]; 50 µM): 246
Micronucleus formation ([4]; any tested concentration, highest 50 μM): did not induce micronucleus formation
CYP3A4 inhibitory potency class [5]: weak (weak inhibitors (IC50 > 10 μM))
IC50 at 15 min ([5]; pH 7.4, testosterone substrate, N = 3, read-out: CYP3A4 IC50 [lower and upper 95%]): > 23 µM
IC50 ([5]; testosterone substrate, N = 3, read-out: CYP3A4 IC50 [lower and upper 95%]): > 26 µM
IC50 [6]: > 26 µM
CYP2D6 inhibitory potency class ([6]; human liver microsomes): weak (weak inhibitors (IC50 > 10 μM))
IC50 at 30 min ([6]; human, microsomes, pH 7.4): > 23 µM
IC50 [7]: > 26 µM
CYP2C9 inhibitory potency class ([7]; human liver microsomes): weak (weak inhibitors (IC50 > 10 μM))
IC50 at 45 min ([7]; human, microsomes, pH 7.4): > 23 µM
Decrease in climbing behavior in FST [8]: 46%
Increase in immobility in FST [8]: 44%
Number of alcohol reinforcements [9]: significantly reduced
Decrease in alcohol preference and consumption [10]: 90%

From article PMC12689952 (Frontiers in Pharmacology, 2025)
